The values that follow come from patent publication US9636335B2, “Heteroaryl compounds as 5-HT4 receptor ligands” (Suven Life Sciences Ltd, priority 2011, dated 2017).

The nature of series [1]: Rodent pharmacokinetic study. The format is in vivo, Male Wister rats. The note with it: plasma, Wistar/Male rat. The procedure: Three to five animals were housed in each cage. […] Animals were fasted over night before oral dosing (p.o) and food pellets were allowed 2 hours post dosing, whereas intravenous dosing food and water were provided as ad libitum. Three rats were dosed with compounds of formula (I) (10 mg/kg) orally and intravenously (05 mg/kg).
At each time point blood was collected through jugular vein and immediately replenish with an equivalent volume of normal saline from freely moving rats. Collected blood was transferred into a labeled eppendr off containing 10 μL of heparin as anticoagulant. Typically blood samples were collected as following time points: Pre dose, 0.08 (only i.v.), 0.25, 0.5, 1, 2, 4, 6, 8, and 24 hours post dose (n=3). Blood was centrifuged at 4000 rpm for 10 minutes. Plasma was prepared and stored frozen at −20° C. until analysis.
Pharmacokinetic parameters Cmax, Tmax, AUCt, T1/2 and Bioavailability were calculated by non-compartmental model using standard non-compartmental model by using WinNonLin 5.0.1 or Phoenix WinNonlin 6.2 version Software package.

Series [2] has as its target recombinant human 5-HT4 receptor (Homo sapiens (Human), UniProt Q13639). The experiment in a line: Determination of EC50 values for 5-HT4 receptor (CHO cells, pCRE-Luc reporter). The format is cell-based. The note with it: CHO cells expressing human 5-HT4 receptor, luciferase activity, 4 hours incubation. Here is the method: A stable CHO cell line expressing recombinant human 5-HT4 receptor and pCRE-Luc reporter system was used for cell-based assay. The assay offers a non-radioactive based approach to determine binding of a compound to GPCRs. In this specific assay, the level of intracellular cyclic AMP which is modulated by activation or inhibition of the receptor is measured. The recombinant cells harbor luciferase reporter gene under the control of cAMP response element.
The above cells were grown in 96 well clear bottom white plates in Hams F12 medium containing 10% fetal bovine serum (FBS). Prior to the addition of compounds or standard agonist, cells were serum starved overnight. Increasing concentrations of test compounds were added in OptiMEM medium to the cells. The incubation was continued at 37° C. in CO2 incubator for 4 hours. Medium was removed and cells were washed with phosphate buffered saline. The cells were lysed and luciferase activity was measured in a Luminometer. Luminescence units were plotted against the compound concentrations using Graphpad software.

Counter-ions that a name gives are not always drawn.

Chain of recombinant human 5-HT4 receptor (Q13639 whole entry): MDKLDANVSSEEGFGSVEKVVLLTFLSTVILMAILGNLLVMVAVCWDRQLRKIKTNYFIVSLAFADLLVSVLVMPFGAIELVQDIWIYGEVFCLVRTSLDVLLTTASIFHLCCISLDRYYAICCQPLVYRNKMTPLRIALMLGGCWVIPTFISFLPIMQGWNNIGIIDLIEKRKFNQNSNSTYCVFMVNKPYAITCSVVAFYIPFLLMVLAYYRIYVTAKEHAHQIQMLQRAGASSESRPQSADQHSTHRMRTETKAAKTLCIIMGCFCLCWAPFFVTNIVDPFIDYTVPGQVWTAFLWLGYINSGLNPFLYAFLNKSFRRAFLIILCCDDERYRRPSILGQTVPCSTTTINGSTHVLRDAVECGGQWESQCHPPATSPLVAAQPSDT

On to `COCCCN1CCC(c2nnc(-c3nn(C(C)C)c4ccccc34)o2)CC1.O=C(O)C(=O)O` [Example 3, 1-isopropyl-3-{5-[1-(3-methoxypropyl)piperidin-4-yl]-[1,3,4]oxadiazol-2-yl}-1H-indazole oxalate salt], for which the time to peak (Tmax) in series [1] (5 mg/kg, intravenous (bolus)) came out at 4.8 min; in series [1] (10 mg/kg, oral (gavage)), 25.2 ± 7.2 min.
Take `CCOC(=O)N1CCC(N2CCC(c3nnc(-c4cc(Cl)c(N)c5c4OCCO5)o3)CC2)CC1` [Example 6, 4-[5-(8-amino-7-chloro-2,3-dihydrobenzo[1,4]dioxin-5-yl)-[1,3,4]oxadiazol-2-yl]-[1,4′]bipiperidinyl-1′-carboxylic acid ethyl ester oxalate salt]: in series [2], the half-maximal effective concentration (EC50) turned out to be 0.0042 µM.
Still for that read-out and setting: for `Nc1c(Cl)cc(-c2nnc(C3CCN(C4CCOCC4)CC3)o2)c2c1CCO2` [Example 7, 5-Chloro-7-{5-[1-(tetrahydropyran-4-yl)piperidin-4-yl]-[1,3,4]oxadiazol-2-yl}-2,3-dihydro benzofuran-4-yl amine oxalate salt] the value was 0.007 µM.
In the case of `Nc1c(Cl)cc(-c2nnc(C3CCN(CC4CCC4)CC3)o2)c2c1CCCO2` [Example 10, 6-Chloro-8-[5-(1-cyclobutylmethyl-piperidin-4-yl)-[1,3,4]oxadiazol-2-yl]-chroman-5-ylamine], the concentration for a half-maximal effect (EC50) in series [2] was determined as 0.0057 µM.
Turning to `Nc1c(Cl)cc(-c2nnc(C3CCN(CC4CC4)CC3)o2)c2c1CCCO2` [Example 11, 6-Chloro-8-[5-(1-cyclopropylmethyl-piperidin-4-yl)-[1,3,4]oxadiazol-2-yl]-chroman-5-ylamine], in series [2], the EC50 is 0.0102 µM.
Same read-out and setting: then `CC(C)N1CCC(c2nnc(-c3cc(Cl)c(N)c4c3OCCC4)o2)CC1` [Example 12, 6-Chloro-8-[5-(1-isopropyl-piperidin-4-yl)-[1,3,4]oxadiazol-2-yl]-chroman-5-ylamine], with 0.0153 µM; and `COCCCN1CCC(c2nnc(-c3cc(Cl)c(N)c4c3OCCC4)o2)CC1` [Example 13, 6-Chloro-8-{5-[1-(3-methoxy-propyl)-piperidin-4-yl]-[1,3,4]oxadiazol-2-yl}-chroman-5-ylamine], with 0.0204 µM.
Regarding `Nc1c(Cl)cc(-c2nnc(C3CCN(C4CCCC4)CC3)o2)c2c1CCCO2` [Example 17, 6-Chloro-8-[5-(1-cyclopentyl-piperidin-4-yl)-[1,3,4]oxadiazol-2-yl]-chroman-5-ylamine tartarate salt], in series [2], the half-maximal effective concentration (EC50) came to 0.0023 µM.
`Nc1c(Cl)cc(-c2nnc(CCN3CCCCC3)o2)c2c1CCCO2` [Example 18, 6-Chloro-8-[5-(2-piperidin-1-yl-ethyl)-[1,3,4]oxadiazol-2-yl]-chroman-5-ylamine]: in series [2], the EC50 came to 0.053 µM.
On to `CC(C)N1CC2C(C1)C2c1nnc(-c2cc(Cl)c(N)c3c2OCCC3)o1` (stereo not shown) [Example 22, 6-Chloro-8-[5-(3-isopropyl-3-aza-bicyclo[3.1.0]hex-6-yl)-[1,3,4]oxadiazol-2-yl]-chroman-5-ylamine oxalate salt], for which the concentration giving a half-maximal response (EC50) in series [2] amounted to 0.048 µM.
`Nc1c(Cl)cc(-c2nnc(C3C4CN(CC5CCC5)CC43)o2)c2c1CCCO2` (stereo not shown) [Example 23, 6-Chloro-8-[5-(3-cyclobutylmethyl-3-aza-bicyclo[3.1.0]hex-6-yl)-[1,3,4]oxadiazol-2-yl]-chroman-5-ylamine oxalate salt]: the EC50 in series [2] was 0.02 µM.
As to `Nc1c(Cl)cc(-c2nnc(C3C4CN(CC5CC5)CC43)o2)c2c1CCCO2` (stereo not shown) [Example 24, 6-Chloro-8-[5-(3-cyclopropylmethyl-3-aza-bicyclo[3.1.0]hex-6-yl)-[1,3,4]oxadiazol-2-yl]-chroman-5-ylamine], the EC50 in series [2] is 0.025 µM.
`CC(C)n1nc(-c2nnc(C3CCN(CC4CC4)CC3)o2)c2ccccc21` [Example 39, 3-[5-(1-Cyclopropylmethyl-piperidin-4-yl)-[1,3,4]oxadiazol-2-yl]-1-isopropyl-1H-indazole]: in series [1] (5 mg/kg, intravenous (bolus)), the AUC(0-t) worked out at 1.06 ± 0.163 µg·h/mL, the Tmax is 4.8 min and the half-life was 99 ± 28.2 min. Also, in series [1] (10 mg/kg, oral (gavage)), the AUC(0-t) was 0.394 ± 0.174 µg·h/mL, the time of peak concentration (Tmax) came to 25.2 ± 7.2 min and the half-life was 82.8 ± 4.2 min.
